The target of test [1] is T1, truncated human beta-secretase (residues 1-458, His6-tagged at the C-terminus) (Homo sapiens, UniProt P56817).
T1 construct: truncated human beta-secretase (residues 1-458, His6-tagged at the C-terminus); His6 (C); made in house; host or cells: insect cells D. melanogaster S2 (baculovirus expression system (so in the source))
The experiment in a line: BACE fluorescence quench assay. Format: biochemical. The settings on record: in vitro enzyme activity, BACE fluorescence assay, pH 4.5; read-out: IC50.

The nature of test [2]: BACE cell assay: soluble Amyloid Beta 1-40 (Aβ 1-40) in culture media of H4-APPsw cells. The class given is cell-based. The note with it: in vitro cell activity, H4-APPsw cells, secreted Aβ 1-40, overnight treatment; read-out: IC50. On the procedure:
H4 neuroglioma cell line that stably expresses Amyloid Precursor Protein (APP) containing the KM-NL Swedish mutation (H4-APPsw) was generated. For the assay, cells are treated overnight in the presence of inhibitor and the culture media are subjected to ELISA analysis of soluble Amyloid Beta 1-40 (Aβ 1-40).
H4 neuroglioma cell line was cultured in DMEM with 10% FBS and 1% penicillin/streptomycin (Culture Medium) at 37° C., 5% CO2. […] 24 hrs after transfection, the cells were replaced into three new plates (150 mm) in fresh Culture Medium with 250 ug/ml Zeocin. […] The levels of APPsw expression were analyzed by immunoblotting and the production of Aβ 1-40 was detected by ELISA of culture supernatants. The selected clones are maintained in Culture Medium with 250 μg/ml Zeocin and routinely split in 3-4 days to maintain 20-80% confluence.
Split cells. Split H4-APPsw cells in Culture Medium and culture overnight such that cells will be ˜80% confluent next morning.
Create Compound Dilution Plate. After determining the desired final concentration of compound to be tested, create a 500× dilution plate. Add DMSO, but not inhibitor, to each well of Column 1. […] Add compounds of interest at 500× desired final concentration to wells A3-A10. Add DMSO, but not inhibitor, to each well of Columns 11 and 12. Dilute contents of Row A 1:3 in Row B. then continue through Rows C—H.
Create Media Plate. To create a 2× solution of compound in media, add 996 μL Culture Medium to each well of a 96-well 2 ml deep well plate (Media Plate) in biosafety hood. Add 4 μL 5 mM control compound to Media Plate wells A1-D1 for determination of full inhibition.
Add media to Cell Plate. With a multichannel pipettor, mix each well of Media Plate several times to insure homogeneity. Add 100 μL of mixture to Black polymer bottom P-D-L plates. Next, place Medium Plate and Cell Plate in the incubator.
Add cells to Cell Plate. Trypsinize and count H4-APPsw cells. Dilute cells 6×10^5 cells/ml in Culture Medium and remove Cell Plate from incubator. Vortex cells to homogeneity, then using a multichannel repeating pipettor, add 100 μL cell suspension to Cell Plate, adding cells from Row H to Row A. Place Cell Plate in incubator.
Change media in Cell Plate. After 5 h, check Cell Plate by microscope to insure cells are attached. In culture hood, remove media from Cell Plate using multichannel repeating pipettor. Add 100 μl Culture Medium to each well. Remove Media Plate from incubator and mix with pipettor as previous. Add 100 μl from each well of Media Plate to corresponding well in Cell Plate. Place Cell Plate in incubator overnight.
Perform ELISA to determine levels of secreted Aβ 1-40. After 16 h incubation, spin Cell Plate for 8 min at 1200 rpm. The primary reading of Aβ 1-40 levels is done using PerkinElmer AlphaLISA technology. Follow the manufacturer's protocol for performing AlphaLISA in a white ½ area Optiwell plate using Row 12 for peptide standard (1:2 dilutions, starting at 15 ng/ml). Data are acquired using PerkinElmer Fusion-Alpha FP-HT, Alpha protocol (Count Time 0.6 s, Count Time Ratio 30%:70%).
Export data from Fusion using Columnar Report format into a separate file for each plate. Upload data into Activity Base using RIA-DOSE-RESPONSE protocol (Version 1). Data from at least eight doses were fitted to a four parameter logistical model using XLfit software to determine potency.

The text below walks through data of US8450308B2 (Vitae Pharmaceuticals, Inc., priority 2008, dated 2013).

By IC50 is commonly meant the concentration that gives 50% inhibition.

T1 sequence (P56817 22-458): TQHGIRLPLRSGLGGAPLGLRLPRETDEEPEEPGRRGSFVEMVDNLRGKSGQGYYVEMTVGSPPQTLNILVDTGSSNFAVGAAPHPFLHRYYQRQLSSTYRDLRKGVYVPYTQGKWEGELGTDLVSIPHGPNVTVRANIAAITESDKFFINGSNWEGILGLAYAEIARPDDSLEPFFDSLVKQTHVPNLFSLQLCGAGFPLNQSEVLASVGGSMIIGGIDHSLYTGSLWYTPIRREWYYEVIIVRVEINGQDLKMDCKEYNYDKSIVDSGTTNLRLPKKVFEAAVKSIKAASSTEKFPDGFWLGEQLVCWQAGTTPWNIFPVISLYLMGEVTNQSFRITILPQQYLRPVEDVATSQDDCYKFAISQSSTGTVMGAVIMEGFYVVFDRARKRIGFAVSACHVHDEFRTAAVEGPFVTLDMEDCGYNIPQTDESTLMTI

For the compound `CN1O[C@]2(C[C@H]([C@H]3CCCOC3)Oc3ccc(-c4cc(F)cc(F)c4)cc32)N=C1N` (racemic) [Compound 316, (±)-(2S,4R)-6-(3,5-difluorophenyl)-2′-methyl-2-((R)-tetrahydro-2H-pyran-3-yl)-2′H-spiro[chroman-4,5′-[1,2,4]oxadiazol]-3′-amine], the IC50 in test [1] is 100 to 500 nM; in test [2], 5000 to 10000 nM.

`CN1O[C@]2(C[C@H]([C@@H]3CCCOC3)Oc3ccc(-c4cc(F)cc(F)c4)cc32)N=C1N` (racemic) [Compound 322, (2S,4R/2R,4S)-6-(3,5-difluorophenyl)-2′-methyl-2-((S/R)-tetrahydro-2H-pyran-3-yl)-2′H-spiro[chroman-4,5′-[1,2,4]oxadiazol]-3′-amine]: the IC50 in test [1] lay in the range of 100 to 500 nM; in test [2] it was 5000 to 10000 nM.

With `CN1O[C@]2(C[C@@H]([C@@H]3CCCOC3)Oc3ccc(-c4cc(F)cc(F)c4)cc32)N=C1N` (racemic) [Compound 323, (±)-(2S,4S)-6-(3,5-difluorophenyl)-2′-methyl-2-((R)-tetrahydro-2H-pyran-3-yl)-2′H-spiro[chroman-4,5′-[1,2,4]oxadiazol]-3′-amine], the half-maximal inhibitory concentration (IC50) was 100 to 500 nM in test [1] and 1000 to 5000 nM in test [2].

Take `CN1OC2(CC3(CC4CCC3OC4)Oc3ccc(-c4cccc(C#N)c4)cc32)N=C1N` (single isomer, unassigned) [Compound 379]: the IC50 in test [1] and in test [2] was 1000 to 5000 nM in each case.

For `CN1OC2(C[C@]3(CC4CCC3OC4)Oc3ccc(-c4cccc(C#N)c4)cc32)N=C1N` (single isomer, unassigned) [Compound 403], the IC50 in test [1] was 1000 to 5000 nM; in test [2], 5000 to 10000 nM.

`CN1OC2(C[C@@]3(CC4CCC3OC4)Oc3ccc(-c4cccc(C#N)c4)cc32)N=C1N` (single isomer, unassigned) [Compound 408]: the values for the IC50 in test [1] and in test [2] were 1000 to 5000 nM and 5000 to 10000 nM, respectively.

For `CN1C(=O)C2(C[C@@H](C3CCCc4ccccc43)Oc3ccc(-c4cccc(C#N)c4)cc32)N=C1N` (stereo in doubt) [Compound 282, 3-(2′-amino-1′-methyl-5′-oxo-2-(1,2,3,4-tetrahydronaphthalen-1-yl)-1′,5′-dihydrospiro[chroman-4,4′-imidazole]-6-yl)benzonitrile], the IC50 in test [1] lay in the range of 100 to 500 nM; in test [2], 1000 to 5000 nM.

For the compound `CN1C(=O)C2(CC([C@H]3CCCc4ccccc43)Oc3ccc(-c4cccc(C#N)c4)cc32)N=C1N` (stereo in doubt) [Compound 335, 3-(2′-amino-1′-methyl-5′-oxo-2-(1,2,3,4-tetrahydronaphthalen-1-yl)-1′,5′-dihydrospiro[chroman-4,4′-imidazole]-6-yl)benzonitrile], the IC50 lay in the range of 100 to 500 nM in test [1] and 5000 to 10000 nM in test [2].

Consider `CN1O[C@@]2(C[C@@H](C3CCOc4ccccc43)Oc3ccc(-c4cccc(C#N)c4)cc32)N=C1N` (stereo partly drawn) [Compound 279], for which the IC50 in test [1] lay in the range of 100 to 500 nM; in test [2], 1000 to 5000 nM.

Consider `CN1C(=O)[C@@]2(C[C@]3(CCCOC3)Oc3ccc(-c4cc(F)cc(F)c4F)cc32)N=C1N` [Compound 280], for which the half-inhibitory concentration (IC50) in test [1] and in test [2] was 100 to 500 nM in each case.

Consider `COc1cc(OC)cc(-c2ccc3c(c2)[C@]2(C[C@]4(CCCOC4)O3)N=C(N)N(C)C2=O)c1` [Compound 283], for which the IC50 in test [1] and in test [2] was 100 to 500 nM throughout.

As to `CN1C(=O)C2(CC3(CCCOC3)Oc3ccc(-c4cc(F)cc(Cl)c4)cc32)N=C1N` (stereo not drawn) [Compound 286], the IC50 in test [1] and in test [2] was 100 to 500 nM each time.

As to `Cc1ccc(F)cc1-c1ccc2c(c1)[C@]1(C[C@]3(CCCOC3)O2)N=C(N)N(C)C1=O` [Compound 287], the IC50 in test [1] and in test [2] was 100 to 500 nM in each case.

For the compound `CN1C(=O)C2(CC3(CCCOC3)Oc3ccc(-c4cc(C#N)ccc4F)cc32)N=C1N` (stereo not drawn) [Compound 288], the IC50 in test [1] and in test [2] was 100 to 500 nM each time.

For the compound `CN1C(=O)C2(CC3(CCCOC3)Oc3ccc(-c4cccc(Cl)c4)cc32)N=C1N` (stereo not drawn) [Compound 290], the IC50 lay in the range of 100 to 500 nM in test [1] and 500 to 1000 nM in test [2].

For the compound `CN1O[C@]2(C[C@H]([C@H]3CCOC(C)(C)C3)Oc3ccc(-c4cccc(C#N)c4)cc32)N=C1N` [Compound 293], the results for the IC50 in test [1] and in test [2] were 100 to 500 nM and 1000 to 5000 nM, respectively.

For `CN1OC2(CC(C3CCOC(C)(C)C3)Oc3ccc(-c4cccc(Br)c4)cc32)N=C1N` (stereo not drawn) [Compound 294], the IC50 in test [1] fell in the range of 100 to 500 nM; in test [2], 1000 to 5000 nM.

For `CN1OC2(C[C@H]([C@H]3CCOC(C)(C)C3)Oc3ccc(-c4cc(F)cc(Cl)c4)cc32)N=C1N` (stereo partly drawn) [Compound 295], the IC50 in test [1] was in the range of 100 to 500 nM; in test [2], 1000 to 5000 nM.

For the compound `CN1OC2(CC(C3CCOC(C)(C)C3)Oc3ccc(-c4cccc(C(F)(F)F)c4)cc32)N=C1N` (stereo not drawn) [Compound 297], the IC50 lay in the range of 100 to 500 nM in test [1] and 1000 to 5000 nM in test [2].

Take `CC1CC[C@]2(CO1)C[C@]1(N=C(N)N(C)O1)c1cc(-c3cc(F)cc(Cl)c3)ccc1O2` (stereo partly drawn) [Compound 298]: the IC50 in test [1] was 100 to 500 nM; in test [2] it was 1000 to 5000 nM.

Turning to `CN1OC2(C[C@H]([C@@H]3CCOC(C)(C)C3)Oc3ccc(-c4cc(F)cc(Cl)c4)cc32)N=C1N` (stereo partly drawn) [Compound 299], the figures for the IC50 in test [1] and in test [2] were 100 to 500 nM and 1000 to 5000 nM, respectively.

On to `CC1CC[C@]2(CO1)C[C@]1(N=C(N)N(C)O1)c1cc(-c3cccc(Cl)c3)ccc1O2` (stereo partly drawn) [Compound 303], for which the values for the half-inhibitory concentration (IC50) in test [1] and in test [2] were 100 to 500 nM and 1000 to 5000 nM, respectively.

As for `CN1OC2(C[C@@H](C34CCC(CC3)OC4)Oc3ccc(-c4cccc(C#N)c4)cc32)N=C1N` (stereo partly drawn) [Compound 305], the IC50 in test [1] fell in the range of 100 to 500 nM; in test [2], 5000 to 10000 nM.

As to `CN1OC2(C[C@H]([C@@H]3CCOC(C)(C)C3)Oc3ccc(-c4cccc(C#N)c4F)cc32)N=C1N` (stereo partly drawn) [Compound 306], the IC50 was in the range of 100 to 500 nM in test [1] and 1000 to 5000 nM in test [2].

Turning to `CN1OC2(CC3(CCCc4ccccc4C3)Oc3ccc(C#CC(C)(C)C)cc32)N=C1N` (stereo not drawn) [Compound 308], the figures for the IC50 in test [1] and in test [2] were 100 to 500 nM and 1000 to 5000 nM, respectively.

Consider `COc1ccc2c(c1)CCC[C@@]1(C2)C[C@@]2(N=C(N)N(C)O2)c2cc(-c3cccc(C#N)c3)ccc2O1` [Compound 311], for which the IC50 fell in the range of 100 to 500 nM in test [1] and 500 to 1000 nM in test [2].

With `CN1OC2(CC3(CCC(c4ccccc4)CC3)Oc3ccc(-c4cccc(C#N)c4)cc32)N=C1N` (stereo not drawn) [Compound 313], the IC50 in test [1] lay in the range of 100 to 500 nM; in test [2], 1000 to 5000 nM.

As for `CN1C(=O)C2(CC3(CCCOC3)Oc3ccc(-c4cc(F)cc(F)c4)cc32)N=C1N` (stereo not drawn) [Compound 314], the IC50 in test [1] was 100 to 500 nM; in test [2], 500 to 1000 nM.

In the case of `CN1OC2(CC3(CCCc4ccccc4C3)Oc3ccc(C#CC4CCCC4)cc32)N=C1N` (stereo not drawn) [Compound 317], the IC50 in test [1] lay within 100 to 500 nM; in test [2] it was 1000 to 5000 nM.

Turning to `CN1OC2(CC3(CCCc4ncccc43)Oc3ccc(-c4cccc(C#N)c4)cc32)N=C1N` (stereo not drawn) [Compound 320], the values for the IC50 in test [1] and in test [2] were 100 to 500 nM and 1000 to 5000 nM, respectively.

Turning to `CN1OC2(CC3(CCc4ccccc4C3)Oc3ccc(-c4cccc(C#N)c4)cc32)N=C1N` (stereo not drawn) [Compound 324], the IC50 in test [1] was in the range of 100 to 500 nM; in test [2], 5000 to 10000 nM.

Take `CC1CC[C@]2(CO1)C[C@]1(N=C(N)N(C)O1)c1cc(-c3ccc(F)c(Cl)c3)ccc1O2` (stereo partly drawn) [Compound 330]: the results for the concentration for half-maximal inhibition (IC50) in test [1] and in test [2] were 100 to 500 nM and 1000 to 5000 nM, respectively.

With `CN1O[C@@]2(C[C@H](C3CCOc4ccccc43)Oc3ccc(-c4cccc(C#N)c4)cc32)N=C1N` (stereo partly drawn) [Compound 331], the results for the IC50 in test [1] and in test [2] were 100 to 500 nM and 5000 to 10000 nM, respectively.
